Assay results published in ChEMBL document CHEMBL5331081, “Discovery of cysteine-targeting covalent histone methyltransferase inhibitors” (Eur J Med Chem, 2023).
Blank lines part the entries; values can stand above or below the compound they belong to.

How the values were obtained:
[1] = Reduction in H3K9me2 level in human MDA-MB-231 cells incubated for 48 hrs by ChIP assay; assay type: functional, cell-based; details: MDA-MB-231, 48 h
[2] = in vivo; details: CD-1, mouse, po, 100 mg/kg
[3] = tested on: A549; assay: Anticancer activity against human A549 cells assessed as cell growth inhibition measured after 48 hrs by CCK-8 assay; assay type: functional
[4] = tested on: NCI-H1299; assay: Anticancer activity against human NCI-H1299 cells assessed as cell growth inhibition measured after 48 hrs by CCK-8 assay; assay type: functional
[5] = tested on: MDA-MB-231; assay: Anticancer activity against human MDA-MB-231 cells assessed as cell growth inhibition measured after 48 hrs by CCK-8 assay; assay type: functional
[6] = tested on: MCF7; assay: Anticancer activity against human MCF7 cells assessed as cell growth inhibition measured after 48 hrs by CCK-8 assay; assay type: functional
[7] = molecular target: Menin/Histone-lysine N-methyltransferase MLL (Homo sapiens, UniProt O00255+Q03164); assay: Inhibition of menin (unknown origin)/MLL (unknown origin) protein-protein interaction by fluorescence polarization assay
[8] = tested on: MV4-11; assay: Anticancer activity against human MV4-11 cells harboring MLL-AF4 fusion protein assessed as cell growth inhibition measured after 7 days by WST-8 assay; assay type: functional; details: MV4-11, 168 h, pooled result: one value given for 6 cell lines, strains, targets or settings, time 7 day
[9] = tested on: K562; assay: Anticancer activity against human K562 cells assessed as cell growth inhibition measured after 7 days by WST-8 assay; assay type: functional; details: K562, 168 h, time 7 day
[10] = Anticancer activity against human MOLM16 cells assessed as cell growth inhibition measured after 7 days by WST-8 assay; assay type: functional, MOLM-16; details: MOLM16, 168 h, time 7 day
[11] = tested on: SKM-1; assay: Anticancer activity against human SKM-1 cells assessed as cell growth inhibition measured after 7 days by WST-8 assay; assay type: functional; details: SKM-1, 168 h, time 7 day
[12] = tested on: HL-60; assay: Anticancer activity against human HL-60 cells assessed as cell growth inhibition measured after 7 days by WST-8 assay; assay type: functional; details: HL-60, 168 h, time 7 day
[13] = tested on: PBMC; assay: Anticancer activity against mouse PBMC cells harboring NUP98-NSD1 fusion protein assessed as cell growth inhibition measured after 3 days by MTT assay; assay type: functional; details: 72 h, time 3 day
[14] = tested on: PBMC; assay: Anticancer activity against mouse PBMC cells harboring NUP98-NSD1 fusion protein assessed as cell growth inhibition measured after 7 days by MTT assay; assay type: functional; details: 168 h, time 7 day
[15] = tested on: MV4-11; assay: Anticancer activity against human MV4-11 cells assessed as cell growth inhibition; assay type: functional
[16] = tested on: HL-60; assay: Anticancer activity against human HL-60 cells assessed as cell growth inhibition; assay type: functional
[17] = Selectivity index, ratio of GI50 for human MV4-11 cells harboring MLL-AF4 fusion protein to ratio of GI50 for human HL-60 cells; assay type: functional
[18] = molecular target: Histone-lysine N-methyltransferase EZH2 (Homo sapiens, UniProt Q15910); assay: Inhibition of EZH2 (unknown origin)

Menin/Histone-lysine N-methyltransferase MLL, sequence (O00255 whole entry, the tested form may be a part): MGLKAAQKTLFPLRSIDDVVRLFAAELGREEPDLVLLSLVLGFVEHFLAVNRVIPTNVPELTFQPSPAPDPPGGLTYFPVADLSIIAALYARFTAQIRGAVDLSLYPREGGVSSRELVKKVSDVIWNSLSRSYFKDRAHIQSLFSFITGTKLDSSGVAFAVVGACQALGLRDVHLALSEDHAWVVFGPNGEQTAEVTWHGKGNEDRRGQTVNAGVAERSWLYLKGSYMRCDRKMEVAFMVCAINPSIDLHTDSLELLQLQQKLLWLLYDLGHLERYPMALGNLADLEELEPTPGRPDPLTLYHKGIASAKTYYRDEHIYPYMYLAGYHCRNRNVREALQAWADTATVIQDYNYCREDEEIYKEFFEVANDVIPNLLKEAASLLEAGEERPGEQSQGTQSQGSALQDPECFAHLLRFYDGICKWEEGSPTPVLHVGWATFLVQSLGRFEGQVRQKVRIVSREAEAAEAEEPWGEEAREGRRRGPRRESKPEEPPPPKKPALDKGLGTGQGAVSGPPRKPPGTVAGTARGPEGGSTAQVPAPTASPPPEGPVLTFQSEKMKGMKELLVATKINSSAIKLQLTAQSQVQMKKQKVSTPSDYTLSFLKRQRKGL
Menin/Histone-lysine N-methyltransferase MLL, sequence (Q03164 1-2718 limits assumed): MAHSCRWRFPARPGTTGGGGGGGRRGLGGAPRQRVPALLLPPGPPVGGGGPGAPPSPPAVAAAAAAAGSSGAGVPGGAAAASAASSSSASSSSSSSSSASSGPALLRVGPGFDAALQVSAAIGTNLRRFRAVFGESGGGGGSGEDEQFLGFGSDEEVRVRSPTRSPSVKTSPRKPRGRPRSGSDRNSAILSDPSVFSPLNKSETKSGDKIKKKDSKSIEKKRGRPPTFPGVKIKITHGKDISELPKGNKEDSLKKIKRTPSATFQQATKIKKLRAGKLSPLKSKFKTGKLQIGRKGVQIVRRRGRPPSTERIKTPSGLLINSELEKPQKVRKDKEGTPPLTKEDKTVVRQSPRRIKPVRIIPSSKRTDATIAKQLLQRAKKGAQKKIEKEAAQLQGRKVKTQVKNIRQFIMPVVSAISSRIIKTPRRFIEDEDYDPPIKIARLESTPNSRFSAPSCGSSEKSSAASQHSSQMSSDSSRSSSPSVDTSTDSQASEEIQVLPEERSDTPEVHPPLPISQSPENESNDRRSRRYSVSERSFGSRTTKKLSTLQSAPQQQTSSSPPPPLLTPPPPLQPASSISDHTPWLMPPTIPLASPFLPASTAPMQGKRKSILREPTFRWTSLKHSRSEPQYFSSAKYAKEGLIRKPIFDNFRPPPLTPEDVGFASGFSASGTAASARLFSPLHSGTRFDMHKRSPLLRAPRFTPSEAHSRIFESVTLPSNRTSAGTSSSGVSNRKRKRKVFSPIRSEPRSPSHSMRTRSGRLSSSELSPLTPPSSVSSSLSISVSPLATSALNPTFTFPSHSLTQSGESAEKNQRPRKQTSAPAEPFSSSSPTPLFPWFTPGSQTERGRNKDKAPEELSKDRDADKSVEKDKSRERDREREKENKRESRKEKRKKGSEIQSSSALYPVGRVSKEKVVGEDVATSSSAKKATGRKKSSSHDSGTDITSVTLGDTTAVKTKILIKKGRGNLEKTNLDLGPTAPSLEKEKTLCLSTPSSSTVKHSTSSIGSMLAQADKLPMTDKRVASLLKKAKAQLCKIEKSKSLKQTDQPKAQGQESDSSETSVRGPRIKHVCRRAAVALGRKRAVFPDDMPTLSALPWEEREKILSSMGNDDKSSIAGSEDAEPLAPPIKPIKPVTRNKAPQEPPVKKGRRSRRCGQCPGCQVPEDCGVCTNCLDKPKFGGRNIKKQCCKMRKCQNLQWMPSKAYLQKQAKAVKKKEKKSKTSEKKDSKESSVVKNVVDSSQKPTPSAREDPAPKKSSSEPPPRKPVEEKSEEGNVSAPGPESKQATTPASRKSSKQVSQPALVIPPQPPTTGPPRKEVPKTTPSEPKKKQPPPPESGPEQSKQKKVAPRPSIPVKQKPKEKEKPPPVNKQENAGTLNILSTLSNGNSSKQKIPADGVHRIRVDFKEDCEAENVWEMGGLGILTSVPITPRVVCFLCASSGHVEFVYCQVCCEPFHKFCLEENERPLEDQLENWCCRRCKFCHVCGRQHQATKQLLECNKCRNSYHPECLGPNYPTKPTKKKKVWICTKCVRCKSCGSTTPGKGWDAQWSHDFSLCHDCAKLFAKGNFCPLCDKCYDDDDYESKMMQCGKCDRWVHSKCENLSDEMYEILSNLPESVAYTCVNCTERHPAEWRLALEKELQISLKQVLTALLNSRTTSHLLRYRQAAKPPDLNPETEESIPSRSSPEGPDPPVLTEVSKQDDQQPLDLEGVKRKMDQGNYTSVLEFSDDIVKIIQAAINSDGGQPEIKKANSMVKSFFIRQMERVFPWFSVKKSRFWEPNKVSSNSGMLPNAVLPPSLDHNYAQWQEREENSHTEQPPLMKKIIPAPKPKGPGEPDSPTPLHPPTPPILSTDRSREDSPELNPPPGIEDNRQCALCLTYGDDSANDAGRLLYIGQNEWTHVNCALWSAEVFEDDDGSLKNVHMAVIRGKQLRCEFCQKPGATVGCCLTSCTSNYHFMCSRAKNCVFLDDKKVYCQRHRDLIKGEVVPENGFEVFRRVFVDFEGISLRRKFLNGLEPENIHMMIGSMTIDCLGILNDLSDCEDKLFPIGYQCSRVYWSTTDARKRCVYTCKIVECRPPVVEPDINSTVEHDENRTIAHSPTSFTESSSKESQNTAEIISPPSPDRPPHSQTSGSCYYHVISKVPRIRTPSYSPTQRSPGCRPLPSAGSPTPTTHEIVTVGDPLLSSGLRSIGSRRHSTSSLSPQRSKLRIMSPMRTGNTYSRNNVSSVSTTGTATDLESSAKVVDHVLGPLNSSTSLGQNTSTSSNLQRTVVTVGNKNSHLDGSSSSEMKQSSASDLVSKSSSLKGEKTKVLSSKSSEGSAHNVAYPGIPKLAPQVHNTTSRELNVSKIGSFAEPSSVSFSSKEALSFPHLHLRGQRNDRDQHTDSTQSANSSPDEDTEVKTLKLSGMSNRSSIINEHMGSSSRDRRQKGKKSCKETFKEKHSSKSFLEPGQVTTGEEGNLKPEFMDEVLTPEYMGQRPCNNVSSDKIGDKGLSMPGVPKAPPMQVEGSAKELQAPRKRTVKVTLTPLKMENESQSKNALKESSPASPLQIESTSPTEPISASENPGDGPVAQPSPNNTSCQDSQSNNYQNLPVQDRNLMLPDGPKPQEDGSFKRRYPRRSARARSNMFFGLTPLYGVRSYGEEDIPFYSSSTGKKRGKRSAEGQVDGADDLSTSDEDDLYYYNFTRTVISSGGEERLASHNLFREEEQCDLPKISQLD
Menin/Histone-lysine N-methyltransferase MLL, sequence (Q03164 2719-3969 limits assumed): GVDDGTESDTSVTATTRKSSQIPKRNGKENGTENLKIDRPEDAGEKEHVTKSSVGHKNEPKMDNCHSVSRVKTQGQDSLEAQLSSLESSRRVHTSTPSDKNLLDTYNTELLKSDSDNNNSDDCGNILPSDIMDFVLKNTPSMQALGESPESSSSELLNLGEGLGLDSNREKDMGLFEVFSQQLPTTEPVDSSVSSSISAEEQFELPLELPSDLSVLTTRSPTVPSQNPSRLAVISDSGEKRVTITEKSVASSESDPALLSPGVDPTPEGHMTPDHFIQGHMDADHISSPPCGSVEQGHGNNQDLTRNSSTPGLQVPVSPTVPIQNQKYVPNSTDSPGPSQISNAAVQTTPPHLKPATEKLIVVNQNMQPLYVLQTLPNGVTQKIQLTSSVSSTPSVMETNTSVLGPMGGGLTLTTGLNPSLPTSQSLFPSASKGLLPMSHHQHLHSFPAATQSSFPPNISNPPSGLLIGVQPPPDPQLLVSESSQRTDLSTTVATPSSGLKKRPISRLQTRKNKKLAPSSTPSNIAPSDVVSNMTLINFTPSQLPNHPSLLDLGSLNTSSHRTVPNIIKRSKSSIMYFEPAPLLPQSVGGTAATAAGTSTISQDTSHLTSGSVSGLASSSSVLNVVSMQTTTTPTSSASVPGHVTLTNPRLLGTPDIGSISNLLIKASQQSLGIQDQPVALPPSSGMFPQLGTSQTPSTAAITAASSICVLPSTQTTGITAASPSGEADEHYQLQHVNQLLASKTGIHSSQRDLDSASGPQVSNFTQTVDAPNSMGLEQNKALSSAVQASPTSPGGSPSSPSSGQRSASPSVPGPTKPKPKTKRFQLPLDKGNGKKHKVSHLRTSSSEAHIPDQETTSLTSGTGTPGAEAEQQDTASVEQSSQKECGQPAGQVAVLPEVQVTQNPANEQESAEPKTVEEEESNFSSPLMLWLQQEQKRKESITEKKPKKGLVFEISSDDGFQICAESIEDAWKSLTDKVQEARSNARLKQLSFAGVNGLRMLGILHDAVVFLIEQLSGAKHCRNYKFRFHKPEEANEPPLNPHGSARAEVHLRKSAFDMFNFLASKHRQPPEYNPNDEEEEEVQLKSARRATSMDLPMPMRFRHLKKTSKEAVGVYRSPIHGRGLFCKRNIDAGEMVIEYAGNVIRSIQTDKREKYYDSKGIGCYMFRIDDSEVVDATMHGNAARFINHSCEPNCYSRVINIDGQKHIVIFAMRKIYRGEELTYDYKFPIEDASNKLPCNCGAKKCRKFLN

SMILES: COc1cc2c(NC3CCN(C(C)C)CC3)nc(C3CCCCC3)nc2cc1OCCCN1CCCC1
- IC50 [1]: 0.081 µM

SMILES: CC1(C)CN=C(N2CCN(c3ncnc4sc5c(c34)CCCC5)CC2)S1
- bioavailability [2]: 77%

SMILES: O=C(CCl)Nc1ccc(S(=O)(=O)c2ccc(NC(=O)CCl)cc2)cc1
- GI50 [3]: 0.702 µM
- GI50 [4]: 0.684 µM
- GI50 [5]: 0.597 µM
- GI50 [6]: 0.413 µM

SMILES: CC1CN1c1cc(O)c2nc(N)sc2c1 (stereo unspecified)
- GI50 [13]: 1.3 µM
- GI50 [14]: 0.87 µM

SMILES: COC(=O)N[C@H]1CCC[C@@H]1[C@](C#N)(c1cccc(F)c1)C1CCN(CC2CN(c3ccc(S(=O)(=O)C4CCC4)cc3)C2)CC1
- IC50 [7]: 0.007 µM
- GI50 [15]: 0.21 µM

SMILES: COc1cc2nc(N3CCCN(C)CC3)nc(NC3CCN(Cc4ccccc4)CC3)c2cc1OC
- IC50 [1]: 0.5 µM

Continued, in another order:

- IC50 [7]: 0.003 µM
- GI50 [8]: 0.0023 µM
- GI50 [9]: 0.9 µM
- GI50 [11]: 0.9 µM
- GI50 [12]: 0.9 µM
SMILES: COC(=O)N[C@H]1CCC[C@@H]1[C@](C#N)(c1cccc(F)c1)C1CCN(CC2CN(c3ccc(S(=O)(=O)C4CN(C(=O)/C=C/CN(C)C)C4)cc3)C2)CC1
- GI50 [10]: 0.9 µM

- GI50 [15]: 0.006 µM
- GI50 [16]: 3.2 µM
SMILES: C=CC(=O)N1CC(S(=O)(=O)c2ccc(N3CC(CN4CCC([C@@](C#N)(c5cccc(F)c5)[C@H]5CCC[C@@H]5NC(=O)OC)CC4)C3)cc2)C1
- RatioGI50 [17]: >500

- IC50 [18]: 0.047 µM
SMILES: C=CC(=O)Nc1cc(-c2ccc(N3CCNCC3)cc2)cc(C(=O)NCc2c(CC)cc(C)[nH]c2=O)c1C
